Test system: HDF cells
Assay: Scratch assay: fibroblast cell migration and wound closure
Assay type: cell-based, Human
Conditions: 10 µM, single components, Fig. 2
Description: Human dermal fibroblasts (HDF) (ATCC, Manassas, VA, USA) were grown in fibroblast basal medium supplemented with fibroblast growth kit-serum free (ATCC). Activation, proliferation and migration of fibroblasts are the primary steps in wound healing, where multiple cell types and other micro environmental factors are involved. Scratch assay is a widely applied In vitro technique for understanding the wound healing capabilities of medicinally important compounds. HDF cells were seeded in 6-well plates and were cultured overnight. Cells were then washed with Delbucco's Phosphate Buffered Saline (DPBS) and a scratch was made with a sterile 200µL tip. The detached cells and other cellular debris were removed by washing the cells with DPBS. The cells were treated with 10 µM of AND (source of Example 1), HYX (source of Example 1), or AND + HYX (1/1 ratio, same sources) and incubated for 24 h. Untreated cells were negative control. […] The experiments were performed in triplicate (n = 3). The width of the scratch and wound closure at different time intervals (0, 12, 24 and 48hrs) was analyzed by Image J software.

## C=C1CC[C@@H]2[C@](C)(CO)[C@H](O)CC[C@@]2(C)[C@@H]1C/C=C1/C(=O)OC[C@H]1O [AND, 3-[2-[Decahydro-6-hydroxy-5-(hydroxymethyl)-5,8a-dimethyl-2-methylene-1-napthalenyl]ethylidene]dihydro-4-hydroxy-2(3H)-furanone]
  percentage of cell migration (in words, relative to the AND+HYX combination): well lower
